Measurements published in patent publication US10730826B2, “Ketone inhibitors of lysine gingipain” (CORTEXYME, INC., priority 2016, dated 2020).

What was measured:
[1] = test system: P. gingivalis W83; experiment: Mouse periodontitis model, P. gingivalis DNA in brain tissue (qPCR); assay type: in vivo, BALB/C mice; conditions: between week 5 and 10
Protocol: (§1) At the beginning of the study, eight week old BALB/C female mice received antibiotic in drinking water (sulfamethoxazolum 0.87 mg/mL, trimethoprimum 0.17 mg/mL) for 10 days to reduce microbiome protection from experiment infection. Experimental periodontitis was induced by ligature placement followed by multiple exposures to P. gingivalis. During the ligature procedure mice were anesthetized with an intraperitoneal injection of ketamine (200 mg/kg) and xylazine (10 mg/kg), and eyes were lubricated with ointment (Puralube Vet; Pharmaderm, Melville, N.Y.). Next, a 5-0 silk ligature (Roboz Surgical Instrument Co.) was tied around the upper maxillary left and right second molar. Sutures were applied and tied gently to prevent damage to the periodontal tissue.
(§2) Mice (n=8-10/arm) were infected for 6 weeks every other day. For infection, […]. of bacteria solution were applied topically to the buccal surface of the maxillae. For preparation of the bacteria, P. gingivalis W83 (ATCC, Rockville, Md.) was streaked on Tryptic Soy Broth (TSB) agar plates (5% sheep blood, supplemented with 0.5 mg/mL L-cysteine, 5 μg/mL hemin, and 0.5 μg/mL vitamin K) and grown under anaerobic conditions at 37° C. for 5-7 days. Samples were then inoculated in TSB with hemin, vitamin K and L-cysteine (TSB-HKC) until mid-log phase (OD600=0.5-0.7). Bacteria were washed in PBS and prepared at final concentration of 1×10^10 cells/mL in PBS+2% methylcellulose (CMC).
Vehicle-treated animals received PBS only. At 5 weeks, a subgroup of animals (n=16) were euthanized to gather baseline measurements before the start of treatment. After 10 weeks, mice were euthanized and the brain, serum, and maxillary tissues were harvested and frozen in liquid nitrogen.
DNA was extracted from brain tissue using the DNeasyBLOOD & TISSUE KIT (Qiagen, Germany) according to manufacturer's protocol. […] The number of copies of the P. gingivalis genome was calculated by matching Cq values with a standard curve prepared from serial dilutions of cultured P. gingivalis W83 (WT). […]

[2] = molecular target: cathepsin F (Homo sapiens (Human), UniProt Q9UBX1); experiment: Cathepsin F inhibition assay; assay type: biochemical; conditions: Table 4; read-out: IC50 (nM) CatF
Protocol: The capacities of compounds of the present invention to inhibit the activity of cathepsins B, H, K, L, and S were measured in similar assays. Boc-Leu-Arg-Arg-AMC (20 μM) in sodium acetate buffer (50 mM, pH 5.5) containing DTT (1 mM) and EDTA (2 mM) was used for the Cathepsin B assay. L-Arg-AMC (20 μM) in sodium acetate buffer (50 mM, pH 5.5) containing DTT (1 mM) and EDTA (2 mM) was used for the Cathepsin H assay. Z-Phe-Arg-AMC (10 μM) in HEPES buffer (50 mM, pH 7.4) containing DTT (2.5 mM) and EDTA (1 mM) was used for the Cathepsin K assay. Z-Phe-Arg-AMC (20 μM) in sodium acetate buffer (50 mM, pH 5.5) containing DTT (1 mM) and EDTA (2 mM) was used for the Cathepsin L assay. Z-Leu-Arg-AMC (10 μM) in sodium acetate buffer (25 mM, pH 4.5) containing DTT (2.5 mM) and NaCl (50 mM) was used for the Cathepsin S assay. The capacities of the compounds to inhibit the activity of cathepsins F, V, and Z were also measured.
Further assays to measure the inhibitory activity of compounds of the present invention against Kgp and cathepsins B, H, K, L, and S were conducted as described in Example 66. The capacities of the compounds to inhibit the activity of cathepsins F, V, and Z were also measured.

[3] = test system: P. gingivalis W83; experiment: Mouse periodontitis model, GAD67 positive interneurons in the dentate gyrus; assay type: in vivo, BALB/C mice; conditions: 10 weeks, infected treated mice vs mock-infected
Protocol: as §1
as §2, with “Samples were then inoculated in TSB with hemin, vitamin K and L-cysteine (TSB-HKC) until mid-log phase (OD600=0.5-0.7). Bacteria were washed in PBS and prepared at final concentration of 1×10^10 cells/mL in PBS+2% methylcellulose (CMC).” left out
Quantification of GAD67 positive interneurons was performed with CellSens 1.5. […] The number of cells on every 40th section through the hippocampus was counted. […]

[4] = Pharmacokinetics in male CD-1 mice dosed p.o.; assay type: in vivo; conditions: p.o. 10 mg/kg, compared to reference compound 73

Chain of cathepsin F (Q9UBX1 271-484): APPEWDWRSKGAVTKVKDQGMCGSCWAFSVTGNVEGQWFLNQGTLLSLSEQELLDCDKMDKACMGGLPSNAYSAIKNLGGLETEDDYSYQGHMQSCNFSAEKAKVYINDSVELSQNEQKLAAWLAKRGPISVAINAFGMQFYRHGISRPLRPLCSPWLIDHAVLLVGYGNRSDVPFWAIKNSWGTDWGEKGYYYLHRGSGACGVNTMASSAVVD

Compound: NCCCC[C@H](NC(=O)C1CCCC1)C(=O)COc1c(F)ccc(F)c1F [Compound 1, (S)—N-(7-amino-2-oxo-1-(2,3,6-trifluorophenoxy)heptan-3-yl)cyclopentanecarboxamide]
- reduction in P. gingivalis DNA copy number in brain tissue ([1]; 3 mg/kg): ~50%
- reduction in P. gingivalis DNA copy number in brain tissue ([1]; 10 mg/kg): ~50%
- reduction in P. gingivalis DNA copy number in brain tissue ([1]; 30 mg/kg): ~80%
- IC50 [2]: 6100 nM
- GAD67 positive interneurons in the dentate gyrus [3]: at the same level as the GAD67^+ cells in the mock-infected mice
- oral availability [4]: improved oral availability
- plasma concentrations [4]: increased plasma concentrations
